Literature values in patent US8653059B2, “Heterocyclic compounds as dipeptidyl peptidase-IV inhibitors for the treatment or prevention of diabetes” (Merck Sharp & Dohme Corp., priority 2007, dated 2014).
Values belong to the compound of their own block, whether it stands above or below them.

Legend:
hematopoiesis = conditions: mouse model of cyclophosphamide-induced neutropenia; WO 99/56753
cardiac allograft = conditions: rats; Transplantation 63: 1495-1500 (1997)
DPP-4 = target: T1, DPP-4 (Homo sapiens, UniProt P27487)
T1 construct: GRF is rapidly degraded in plasma to GRF[3-44]; host or cells: plasma
T1 sequence (P27487 whole entry, species assumed): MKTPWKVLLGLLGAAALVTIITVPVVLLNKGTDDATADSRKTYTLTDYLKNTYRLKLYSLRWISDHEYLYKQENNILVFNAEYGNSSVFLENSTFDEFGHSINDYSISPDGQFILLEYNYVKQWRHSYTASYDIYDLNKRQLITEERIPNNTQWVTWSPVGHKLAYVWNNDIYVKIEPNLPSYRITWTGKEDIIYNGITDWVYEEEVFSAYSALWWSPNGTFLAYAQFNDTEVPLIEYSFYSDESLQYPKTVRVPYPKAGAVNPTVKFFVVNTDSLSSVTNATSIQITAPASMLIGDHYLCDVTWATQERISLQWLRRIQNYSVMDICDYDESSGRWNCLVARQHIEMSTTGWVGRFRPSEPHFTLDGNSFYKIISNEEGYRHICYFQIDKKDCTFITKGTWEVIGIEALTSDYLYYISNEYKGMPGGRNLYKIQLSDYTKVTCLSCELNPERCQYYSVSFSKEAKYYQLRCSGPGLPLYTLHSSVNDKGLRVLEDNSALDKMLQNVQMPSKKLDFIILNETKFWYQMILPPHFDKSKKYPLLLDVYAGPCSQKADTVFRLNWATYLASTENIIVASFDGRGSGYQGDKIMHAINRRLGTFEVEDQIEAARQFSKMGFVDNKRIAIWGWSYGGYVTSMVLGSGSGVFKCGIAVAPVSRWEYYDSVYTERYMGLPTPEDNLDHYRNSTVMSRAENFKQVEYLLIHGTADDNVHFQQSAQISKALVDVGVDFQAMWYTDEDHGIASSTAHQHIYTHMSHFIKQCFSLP

Compound: CC(C)[C@H](N)C(=O)N1CCC[C@H]1B(O)O [Val-Boro-Pro]
hematopoiesis (hematopoiesis): stimulated hematopoiesis

Compound: CC(C)N1CCC(c2ccccc2)(c2ccccc2)CC1 [Prodipine, Pro-Pro-diphenyl-phosphonate]
cardiac allograft survival (cardiac allograft): double cardiac allograft survival in rats from day 7 to day 14

degradation of GRF in plasma to GRF[3-44] (DPP-4): prevented
Compound: diprotin A
